Measured values reported in patent US20250206738A1, “WRN INHIBITORS” (Nimbus Wadjet, Inc., priority 2023, published 2025).

target: T1, human Werner helicase (WRN, Uniprot Q14191, amino acids 517-1235 with L1074F point mutation; WRN-BV08) (Homo sapiens, UniProt Q14191, L1074F); experiment: WRN (BV08) ADP-Glo assay; assay type: biochemical; details: WRN-BV08 (aa 517-1235, L1074F); read-out: ADP-Glo_hWRN_IC50
T1 construct: Uniprot Q14191, amino acids 517-1235 with L1074F point mutation; 8xHis (C, cleaved yes); TEV cleavage site (ENLYFQG) (C, cleaved yes); made in house; host or cells: Sf9 insect cells (baculovirus, pFastBac)
T1 sequence (Q14191 with tags, fused parts or gaps L1074F): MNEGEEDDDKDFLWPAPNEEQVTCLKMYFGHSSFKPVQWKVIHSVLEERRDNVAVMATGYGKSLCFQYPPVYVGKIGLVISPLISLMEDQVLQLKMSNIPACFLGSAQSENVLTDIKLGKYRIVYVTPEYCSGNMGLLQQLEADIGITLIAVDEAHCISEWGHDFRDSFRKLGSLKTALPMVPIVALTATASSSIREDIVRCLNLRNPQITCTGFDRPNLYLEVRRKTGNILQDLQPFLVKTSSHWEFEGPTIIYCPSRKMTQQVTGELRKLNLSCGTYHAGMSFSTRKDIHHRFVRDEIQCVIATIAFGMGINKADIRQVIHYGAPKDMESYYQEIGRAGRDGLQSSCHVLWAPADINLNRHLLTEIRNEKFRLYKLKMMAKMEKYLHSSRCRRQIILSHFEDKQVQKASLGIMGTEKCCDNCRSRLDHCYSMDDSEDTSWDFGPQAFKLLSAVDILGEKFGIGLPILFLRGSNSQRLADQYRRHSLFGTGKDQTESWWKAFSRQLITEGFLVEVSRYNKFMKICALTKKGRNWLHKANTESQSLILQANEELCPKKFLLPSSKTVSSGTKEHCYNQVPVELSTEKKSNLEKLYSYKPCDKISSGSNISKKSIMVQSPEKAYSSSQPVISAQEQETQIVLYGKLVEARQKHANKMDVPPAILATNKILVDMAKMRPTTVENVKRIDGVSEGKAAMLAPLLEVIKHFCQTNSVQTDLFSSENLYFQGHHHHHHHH
Text: Example 2: WRN (BV08) ADP-Glo Assay Protocol
Bovine skin gelatin (BSG), dimethyl sulfoxide (DMSO), Pluronic F-127 and tris(2-carboxyethyl)phosphine hydrochloride solution (TCEP) were purchased from Sigma-Aldrich (St. Louis, MO) at the highest level of purity possible. Bicine buffer solution was purchased from Alfa Aesar (Tewksbury, MA) and compound NSC-617145 was purchased from Tocris (Minneapolis, MN). DNA duplex was synthesized at BGI (Shenzhen, China) and was composed of strand 1 with the sequence 5′-[…]-3′ (SEQ ID NO.: 1) and strand 2 with the sequence 5′-[…]-3′ (SEQ ID NO.: 2). DNA strands were annealed by heating to 95° C. for 5 minutes followed by slow cooling to room temperature. Compounds in 100% DMSO ([…]) were spotted into a 384-well white polystyrene Optiplate-384 (Perkin Elmer; Waltham, MA) assay plate using a LabCyte Echo 550 (Agilent; Santa Clara, CA). DMSO ([…]) was added to columns 12, rows A-H and column 24, rows I-P for the maximum signal control. Compound NSC-617145 ([…]) was added to columns 12, rows I-P and 24, rows A-H for the minimum signal control (100% inhibition). Compounds/DMSO were preincubated for 15 minutes at 25° C. with […] 2×WRN (BV08), prepared as described below, in assay buffer containing 20 mM Bicine (pH=7.5), 1 mM MgCl2, 10 mM KCl, 0.1% Pluronic F-127, 0.005% BSG, 1 mM TCEP. The reaction was initiated by the addition of […] 2× substrate mixture in assay buffer and incubated for 60 minutes at 25° C. The final concentrations of the assay components were 0.15 nM WRN, […], and 0.1 nM DNA duplex. The final DMSO concentration was 1% and the reference compound concentration (NSC-617145) used for the minimal signal control was […]. The reaction was stopped by the addition of the ADP-Glo Kit components (Promega; Madison, WI) as directed and the relative luminescence units (RLU) were read on an Envision 2104 (Perkin Elmer; Waltham, MA).
% Inhibition Calculation:
Where RLU=relative luminescence units, sample=signal in sample well, and MIN and MAX are the respective minimum and maximum signal controls.
Four-Parameter IC50 Fit Equation:
Where top and bottom are normally allowed to float but may be fixed at 100 or 0 respectively in a 3-parameter fit. Y is the % inhibition and X is the compound concentration.
Molecular Biology and virus production. The DNA encoding human Werner helicase (Uniprot Q14191, amino acids 517-1235 with L1074F point mutation) was generated with codon-optimization for […] expression and subcloned into the pFastBac vector with a TEV cleavable 8×His tag (SEQ ID NO: 5) (WRN—BV08). The baculovirus from the expression plasmid WRN—BV08 was generated from transfection and amplification following the manufacturer's instructions.
Sf9 cells grown in SF900II media were infected with 1:200 WRN—BV08 P2 virus and incubated for protein expression for 72 h at 27° C. The WRN protein was purified using the following protocol. The cell pellets were thawed and resuspended in buffer A (50 mM Tris, pH 7.5, 500 mM NaCl, 1 mM TCEP, 10% Glycerol) supplemented with 0.5% CHAPS, 1 mM PMSF, 1 μg/ml Leupeptin, 1 μg/ml Pepstatin, and the Pierce Universal Nuclease and cocktail tablet. Cleared lysates were loaded onto a Ni Sepharose™ excel column and washed with buffer A and bound protein was eluted with buffer A supplemented with 300 mM imidazole. The eluted protein was dialyzed against buffer A and digested by His-tagged TEV (1:5 ratio) overnight at 4° C. ZnCl2 was added into the sample at final 15 μM before loading onto a second Ni Sepharose™ excel column. Untagged WRN protein was eluted from the column with buffer A supplemented with 20 mM imidazole, dialyzed overnight into buffer B (50 mM Tris, pH 7.5, 1 mM TCEP, 10% Glycerol) supplemented with 150 mM NaCl and loaded onto a Heparin column. Proteins were eluted with a step gradient of buffer B supplemented with 150 mM, 200 mM, 300 mM and 500 mM NaCl. […]

`CCc1c(N2CCN(C(=O)c3c(O)ccc4ncoc34)CC2)c(=O)n2nc(-c3ccnc(OC)c3)nc2n1CC(=O)NC1CC2(CCC2)C1` [I-206, 2-(5-ethyl-6-(4-(6-hydroxybenzo[d]oxazole-7-carbonyl)piperazin-1-yl)-2-(2-methoxypyridin-4-yl)-7-oxo-[1,2,4]triazolo[1,5-a]pyrimidin-4(7H)-yl)-N-(spiro[3.3]heptan-2-yl)acetamide] and `CCc1c(N2CCN(C(=O)c3c(OC)ccc4ncoc34)[C@H]3CC[C@@H]32)c(=O)c2nn(C3=CCOCC3)nc2n1CC(=O)NC12CC(C3CC3)(C1)C2` [I-180, N-{3-cyclopropylbicyclo[1.1.1]pentan-1-yl}-2-[2-(3,6-dihydro-2H-pyran-4-yl)-5-ethyl-6-[(1S,6S)-5-(6-methoxy-1,3-benzoxazole-7-carbonyl)-2,5-diazabicyclo[4.2.0]octan-2-yl]-7-oxo-2H,4H,7H-[1,2,3]triazolo[4,5-b]pyridin-4-yl]acetamide] fall in the same range of IC50: 5 to 50 nM for the first, 5 to 50 nM for the second.

`CCc1c(N2CCN(C(=O)c3ncnc(C)c3O)[C@H]3CC[C@@H]32)c(=O)c2nn(-c3ccnc(OC)c3)nc2n1CC(=O)NC12CC(C3CCC3)(C1)C2` [I-80, N-{3-cyclobutylbicyclo[1.1.1]pentan-1-yl}-2-{5-ethyl-6-[(1S,6S)-5-(5-hydroxy-6-methylpyrimidine-4-carbonyl)-2,5-diazabicyclo[4.2.0]octan-2-yl]-2-(2-methoxypyridin-4-yl)-7-oxo-2H,4H,7H-[1,2,3]triazolo[4,5-b]pyridin-4-yl}acetamide] and `CCc1c(N2CCN(C(=O)c3ncnc(C)c3O)[C@H]3CCC[C@@H]32)c(=O)c2nn(-c3ccnc(OC)c3)nc2n1CC(=O)NC12CC(C3CC3)(C1)C2` [I-54, 2-{6-[(4aS,7aS)-4-(5-hydroxy-6-methylpyrimidine-4-carbonyl)-octahydro-1H-cyclopenta[b]pyrazin-1-yl]-5-ethyl-2-(2-methoxypyridin-4-yl)-7-oxo-2H,4H,7H-[1,2,3]triazolo[4,5-b]pyridin-4-yl}-N-{3-cyclopropylbicyclo[1.1.1]pentan-1-yl}acetamide] cannot be ordered by IC50: no more than 5 nM for the first, 5 to 50 nM for the second.

`CCc1c(N2CCN(C(=O)c3ncnc(C)c3O)CC2)c(=O)c2nn(C3=CCOCC3)nc2n1CC(=O)NC12CC(C(C)C)(C1)C2` [I-59, 2-[2-(3,6-dihydro-2H-pyran-4-yl)-5-ethyl-6-[4-(5-hydroxy-6-methylpyrimidine-4-carbonyl)piperazin-1-yl]-7-oxo-2H,4H,7H-[1,2,3]triazolo[4,5-b]pyridin-4-yl]-N-[3-(propan-2-yl)bicyclo[1.1.1]pentan-1-yl]acetamide] and `CCc1c(N2CCN(C(=O)c3ncnc(C)c3O)[C@H]3CC[C@@H]32)c(=O)c2nn(-c3ccn(C4CC4)n3)nc2n1CC(=O)NC12CC(C(C)C)(C1)C2` [I-78, 2-[2-(1-cyclopropyl-1H-pyrazol-3-yl)-5-ethyl-6-[(1S,6S)-5-(5-hydroxy-6-methylpyrimidine-4-carbonyl)-2,5-diazabicyclo[4.2.0]octan-2-yl]-7-oxo-2H,4H,7H-[1,2,3]triazolo[4,5-b]pyridin-4-yl]-N-[3-(propan-2-yl)bicyclo[1.1.1]pentan-1-yl]acetamide] fall in the same range of IC50: 5 to 50 nM for the first, 5 to 50 nM for the second.

`CCc1c(N2CCN(C(=O)c3ncnc(C)c3O)[C@H]3CC[C@@H]32)c(=O)c2nn(C3=CCC(OC)CC3)nc2n1CC(=O)NC12CC(C3CC3)(C1)C2` (stereo partly drawn) [I-163, N-{3-cyclopropylbicyclo[1.1.1]pentan-1-yl}-2-{5-ethyl-6-[(1S,6S)-5-(5-hydroxy-6-methylpyrimidine-4-carbonyl)-2,5-diazabicyclo[4.2.0]octan-2-yl]-2-(4-methoxycyclohex-1-en-1-yl)-7-oxo-2H,4H,7H-[1,2,3]triazolo[4,5-b]pyridin-4-yl}acetamide] and `CCc1c(N2CCN(C(=O)c3ncnc(C)c3O)[C@H]3CC[C@@H]32)c(=O)c2nn(-c3ccnc(OC)c3)cc2n1CC(=O)NC12CC(C3CC3)(C1)C2` [I-177, N-{3-cyclopropylbicyclo[1.1.1]pentan-1-yl}-2-{5-ethyl-6-[(1S,6S)-5-(5-hydroxy-6-methylpyrimidine-4-carbonyl)-2,5-diazabicyclo[4.2.0]octan-2-yl]-2-(2-methoxypyridin-4-yl)-7-oxo-2H,4H,7H-pyrazolo[4,3-b]pyridin-4-yl}acetamide] fall in the same range of IC50: 5 to 50 nM for the first, 5 to 50 nM for the second.

test system: p21 induction in HCT 116 cells; experiment: p21 induction in cells (In-Cell Western, p21/GAPDH ratio); assay type: cell-based; details: Homo sapiens, HCT-116, 24 h, 24 h compound incubation, read-out: P21_EC50
Experimental: Example 3: Method for Determining Effect on p21 Induction in Cells
The colon carcinoma cell line HCT 116 was obtained from ATCC and cultured in growth medium consisting of Mccoy's 5A Medium (Gibco 16600108) supplemented with 10% FBS (Transgene FS201-02) and 100 units/mL penicillin-streptomycin (Gibco 15140122) and maintained at 37° C. under 5% CO2. On the day of seeding, 2,000 cells in 30 μL of culture media were plated per well to Poly-D-Lysine 384 Well Black Clear Plates (Biocoat 356663) and incubated overnight at 37° C. under 5% CO2. The following day, compounds were serially diluted in DMSO for a total of 11 test concentrations. The typical starting concentration of compounds was 10 μM with 2-fold dilutions. Next, 150 nL of diluted compound was added in duplicate to the assay plate, using an Echo 655 (Labcyte). The plate was centrifuged at 500 RPM for 1 min and then incubated at 37° C. under 5% CO2 for 24 h. After 24h, medium was removed, and cells were fixed by adding 40 μL of 4% paraformaldehyde solution to each well and incubated for 20 min at room temperature. The plate was then washed 4 times with 100 μL per well of wash buffer (PBS with 0.1% Tween-20) using a microplate washer. Next, 30 μL of ice-cold methanol was added to each well and the plate was incubated at −20° C. for 10 min. The plate was washed 4 times with 100 μL per well of wash buffer by a microplate washer, then 30 μL per well of blocking buffer (Intercept PBS blocking buffer (LI-COR 927-70001) with 0.05% Tween-20) was added and the plate was incubated at room temperature with shaking for 2h. Next, to each test well, 20 μL of primary antibody solution (p21 Waf1/CIP (12D1) RabbitmAb (Cell Signaling Technologies 2947) diluted 1:1000 and GAPDH (D4C6R) Mouse mAb (Cell Signaling Technologies 97166) diluted 1:2000 in blocking buffer) was added and the plate was placed at 4° C., overnight. The following day, the plate was washed 5 times with 100 μL per well of wash buffer using a microplate washer for 5 min. 20 μL per well of secondary antibody (IRDye 680CW Goat anti-Mouse IgG (H+L) (LI-COR 926-68070) diluted 1: 2000 in Blocking Buffer and IRDye 800CW Goat anti-Rabbit IgG (H+L) (LI-COR 926-32211) diluted 1: 2000 in Blocking Buffer) was then added and the plate was stored for 2h in the dark at room temperature with shaking. The plate was then washed 4 times with 100 μL per well of wash buffer again using a microplate washer. Finally, the p21 signal and the GAPDH signal were quantified using a LI-COR Odyssey CLx Imager machine reading at 800 nm and 700 nm, respectively. Each plate contained DMSO control (low control) and an internal reference WRN inhibitor (high control) respectively. For quantitation, the 800 nm/700 nm ratio was calculated for each well to give fold p21 induction and then percent activation for each compound well was calculated as follows (100×(ratio cpd well−ratio low control)/(ratio high control−ratio low control)). EC50 values for each compound were generated after non-linear regression curve fitting using commercially available software.

`CCc1c(N2CCN(C(=O)c3c(O)ccc4ncoc34)CC2)c(=O)n2nc(-c3ccnc(OC)c3)nc2n1CC(=O)NC1CC2(CCC2)C1` [I-206, 2-(5-ethyl-6-(4-(6-hydroxybenzo[d]oxazole-7-carbonyl)piperazin-1-yl)-2-(2-methoxypyridin-4-yl)-7-oxo-[1,2,4]triazolo[1,5-a]pyrimidin-4(7H)-yl)-N-(spiro[3.3]heptan-2-yl)acetamide] and `CCc1c(N2CCN(C(=O)c3c(OC)ncc(C4CC4)c3O)CC2)c(=O)c2nn(-c3ccnc(OC)c3)nc2n1CC(=O)NC12CC(C(C)C)(C1)C2` [I-83, 2-{6-[4-(5-cyclopropyl-4-hydroxy-2-methoxypyridine-3-carbonyl)piperazin-1-yl]-5-ethyl-2-(2-methoxypyridin-4-yl)-7-oxo-2H,4H,7H-[1,2,3]triazolo[4,5-b]pyridin-4-yl}-N-[3-(propan-2-yl)bicyclo[1.1.1]pentan-1-yl]acetamide] cannot be ordered by EC50: 500 to 2000 nM for the first, no more than 500 nM for the second.
